# Results from the Kinase Knowledgebase extract (Sharma et al. 2016).
# Biological target: PIK3CG (human) (UniProt P48736)
# Test: Inhibition of PIK3CG Kinase Activity
# Chain of PIK3CG (human) (P48736 whole entry, looked up): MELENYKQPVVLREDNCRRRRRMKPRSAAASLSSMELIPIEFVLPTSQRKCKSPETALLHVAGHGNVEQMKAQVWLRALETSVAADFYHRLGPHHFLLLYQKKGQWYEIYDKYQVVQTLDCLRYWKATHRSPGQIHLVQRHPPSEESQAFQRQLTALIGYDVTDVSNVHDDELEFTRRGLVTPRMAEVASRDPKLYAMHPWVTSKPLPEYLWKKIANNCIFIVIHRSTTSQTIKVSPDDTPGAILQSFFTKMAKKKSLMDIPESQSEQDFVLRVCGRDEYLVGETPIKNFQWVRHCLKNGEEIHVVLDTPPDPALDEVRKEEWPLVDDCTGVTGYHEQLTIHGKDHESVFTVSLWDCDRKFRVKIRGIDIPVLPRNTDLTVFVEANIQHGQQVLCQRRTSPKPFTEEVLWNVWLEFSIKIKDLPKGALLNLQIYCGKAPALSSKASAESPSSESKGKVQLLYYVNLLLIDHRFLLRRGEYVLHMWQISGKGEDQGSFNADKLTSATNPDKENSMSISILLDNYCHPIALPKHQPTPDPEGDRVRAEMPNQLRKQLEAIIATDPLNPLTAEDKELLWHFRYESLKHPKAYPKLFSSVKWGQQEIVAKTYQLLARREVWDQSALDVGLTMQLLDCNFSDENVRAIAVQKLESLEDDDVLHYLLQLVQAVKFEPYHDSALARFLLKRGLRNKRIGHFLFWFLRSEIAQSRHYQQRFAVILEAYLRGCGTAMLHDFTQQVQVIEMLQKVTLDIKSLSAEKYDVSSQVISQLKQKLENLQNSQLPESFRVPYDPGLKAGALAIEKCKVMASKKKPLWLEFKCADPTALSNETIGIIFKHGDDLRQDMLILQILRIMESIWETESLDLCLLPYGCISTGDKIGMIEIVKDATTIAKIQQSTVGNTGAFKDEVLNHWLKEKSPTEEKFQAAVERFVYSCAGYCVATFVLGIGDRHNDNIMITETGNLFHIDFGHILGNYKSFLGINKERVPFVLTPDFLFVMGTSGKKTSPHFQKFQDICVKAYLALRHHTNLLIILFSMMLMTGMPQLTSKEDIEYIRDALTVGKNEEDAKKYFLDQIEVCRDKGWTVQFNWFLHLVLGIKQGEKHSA
row,SMILES,IC50 [nM]
1,CC(=O)Nc1nc2c(s1)-c1c(c(C3(C)CC3)nn1-c1ccc(C(=O)NC3CCN(C4CCCC4)CC3)cc1Cl)CC2,< 600
2,COc1cc(-n2nc(C3CC3)c3c2-c2sc(NC(C)=O)nc2CC3)ccc1C(=O)N(C)C1CCN(C2CCCC2)CC1,< 600
3,CC(=O)Nc1nc2c(s1)-c1c(c(C3CC3)nn1-c1ccc(C(=O)NC[C@H]3CCN(C4CCCC4)C3)c(Cl)c1)CC2,< 600
4,CC(=O)Nc1nc2c(s1)-c1c(c(C3CC3)nn1-c1ccc(C(=O)NC3CCN(C4CCOCC4)CC3)c(F)c1)CC2,< 600
5,CC(=O)Nc1nc2c(s1)-c1c(c(C3CC3)nn1-c1ccc(C(=O)N[C@H]3CC[C@@H](N(C)CC4CCCC4)CC3)cc1C)CC2,< 600
6,CC(=O)Nc1nc2c(s1)-c1c(c(C3CC3)nn1-c1ccc(C(=O)NC3CCN(CC4CCCCC4)CC3)cc1F)CC2,< 600
7,CC(=O)Nc1nc2c(s1)-c1c(c(C3CC3)nn1-c1ccc(C(=O)N3CC[C@H](CN4CCCC4)C3)c(Cl)c1)CC2,< 600
8,CNC(=O)C1CCC(n2nc(C3CC3)c3c2-c2sc(NC(C)=O)nc2CC3)CC1 (stereo not drawn),< 600
9,CC(=O)Nc1nc2c(s1)-c1c(c(C3CC3)nn1C1CCN(C(=O)N3CCN(C4CCCC4)CC3)CC1)CC2,< 600
10,CC(=O)Nc1nc2c(s1)-c1c(c(C3CCCC3)nn1-c1ccc(C(=O)NC3CCN(CC4CCCC4)CC3)cc1Cl)CC2,< 600
11,CC(=O)Nc1nc2c(s1)-c1c(c(C3CC3)nn1-c1ccc(C(=O)N[C@H]3CN4CCC3CC4)c(Cl)c1)CC2,< 600
12,CC(=O)Nc1nc2c(s1)-c1c(c(C3CC3)nn1-c1ccc(NC(=O)[C@H]3CC[C@@H](N4CCCC4)CC3)cc1Cl)CC2,< 600
13,CCN(C(=O)c1ccc(-n2nc(C3CC3)c3c2-c2sc(NC(C)=O)nc2CC3)c(F)c1)[C@H]1CC[C@@H](N2CCCC2)CC1,< 600
14,CC(=O)Nc1nc2c(s1)-c1c(c(C3CC3)nn1-c1ccc(C(=O)N(C)[C@H]3CC[C@@H](N4CCCCC4)CC3)cc1F)CC2,< 600
15,CC(=O)Nc1nc2c(s1)-c1c(c(C3CC3)nn1-c1ccc(C(=O)N[C@H]3CC[C@@H](N(C)CC4CCCC4)CC3)cc1Cl)CC2,< 600
16,CC(=O)Nc1nc2c(s1)-c1c(c(C3CC3)nn1-c1ccc(C(=O)NC3CCN(C4CCCC4)CC3)cc1Cl)CC2,< 600
17,CC(=O)Nc1nc2c(s1)-c1c(c(C3CC3)nn1-c1ccc(C(=O)N(C)C3CCC(N4CCCC4)CC3)c(F)c1)CC2 (stereo not drawn),< 600
18,CC(=O)Nc1nc2c(s1)-c1c(c(C3CC3)nn1-c1ccc(C(=O)N[C@H]3CC[C@@H](N4CCCC4)CC3)c(Cl)c1)CC2,< 600
19,CC(=O)Nc1nc2c(s1)-c1c(c(C3CC3)nn1-c1ccc(C(=O)NC3CCN(CC4CCCC4)CC3)cc1C)CC2,< 600
20,CC(=O)Nc1nc2c(s1)-c1c(c(C3CC3)nn1-c1ccc(C(=O)N[C@H]3CC[C@H](C(N)=O)CC3)cc1Cl)CC2,< 600
21,CCCN1CCC(NC(=O)c2ccc(-n3nc(C4(C)CC4)c4c3-c3sc(NC(C)=O)nc3CC4)c(Cl)c2)CC1,< 600
22,CC(=O)Nc1nc2c(s1)-c1c(c(C3CC3)nn1-c1ccc(C(=O)N(C)[C@H]3CC[C@@H](N4CCCCC4)CC3)cc1Cl)CC2,< 600
23,CC(=O)Nc1nc2c(s1)-c1c(c(C3CC3)nn1-c1ccccc1Cl)CC2,< 600
24,CC(=O)Nc1nc2c(s1)-c1c(c(C3CC3)nn1-c1ccc(C(=O)N(C)[C@H]3CC[C@@H](N(C)CC4CC4)CC3)cc1C)CC2,< 600
25,CC(=O)Nc1nc2c(s1)-c1c(c(C3CC3)nn1-c1ccc(C(=O)N[C@H]3CC[C@@H](N(C)CC4CCCC4)CC3)c(F)c1)CC2,< 600

row,SMILES,IC50 [nM]
1,CC(=O)Nc1nc2c(s1)-c1c(c(C3CC3)nn1-c1ccc(C(=O)N[C@H]3CC[C@@H](N(C)CC4CC4)CC3)c(C)c1)CC2,< 600
2,CC(=O)Nc1nc2c(s1)-c1c(c(C3CC3)nn1-c1ccc(C(=O)NC3CCN(C4CCCC4)CC3)c(C)c1)CC2,< 600
3,CC(=O)Nc1nc2c(s1)-c1c(c(C3CC3)nn1-c1ccc(C(=O)NC3CCN(CC4CCCCC4)CC3)c(Cl)c1)CC2,< 600
4,CCN(C(=O)c1ccc(-n2nc(C3CC3)c3c2-c2sc(NC(C)=O)nc2CC3)c(Cl)c1)[C@H]1CC[C@@H](N2CCCC2)CC1,< 600
5,CC(=O)Nc1nc2c(s1)-c1c(c(C3CC3)nn1-c1ccc(C(=O)N(C)[C@H]3CCN(C4CCCCC4)C3)c(F)c1)CC2,< 600
6,CC(=O)Nc1nc2c(s1)-c1c(c(C3(C)CC3)nn1-c1ccc(C(=O)N[C@H]3CC[C@@H](N4CCCC4)CC3)cc1Cl)CC2,< 600
7,CC(=O)Nc1nc2c(s1)-c1c(c(C3CC3)nn1-c1ccc(C(=O)N(C)[C@H]3CC[C@@H](N(C)CC4CC4)CC3)c(Cl)c1)CC2,< 600
8,CC(=O)Nc1nc2c(s1)-c1c(c(C3CCC3)nn1-c1ccccc1Cl)CC2,< 600
9,CC(=O)Nc1nc2c(s1)-c1c(c(C3CC3)nn1-c1ccc(C(=O)N(C)Cc3ccncc3)cc1Cl)CC2,< 600
10,CCCN1CCC(NC(=O)c2ccc(-n3nc(C4CCCC4)c4c3-c3sc(NC(C)=O)nc3CC4)c(Cl)c2)CC1,< 600
11,CC(=O)Nc1nc2c(s1)-c1c(c(C3(C)CC3)nn1-c1ccccc1Cl)CC2,< 600
12,CC(=O)Nc1nc2c(s1)-c1c(c(C3CCCC3)nn1-c1ccc(C(=O)N(C)[C@H]3CC[C@@H](N4CCCC4)CC3)cc1Cl)CC2,< 600
13,CC(=O)Nc1nc2c(s1)-c1c(c(C3CC3)nn1-c1ccc(C(=O)N(C)[C@@H]3CCN(CC4CCCC4)C3)cc1F)CC2,< 600
14,CC(=O)Nc1nc2c(s1)-c1c(c(C3CC3)nn1-c1ccc(C(=O)NC3CCN(C4CCOCC4)CC3)cc1C)CC2,< 600
15,CC(=O)Nc1nc2c(s1)-c1c(c(C3CC3)nn1-c1ccc(C(=O)NC3CCN(CC4CCCCC4)CC3)cc1Cl)CC2,< 600
16,CC(=O)Nc1nc2c(s1)-c1c(c(C3CC3)nn1-c1ccc(C(=O)N3CCC(CN4CCCC4)CC3)c(Cl)c1)CC2,< 600
17,CC(=O)Nc1nc2c(s1)-c1c(c(C3CC3)nn1-c1ccccc1)CC2,< 600
18,CC(=O)Nc1nc2c(s1)-c1c(c(C3CC3)nn1C1CCN(C(=O)N3CCC(N(C)C)CC3)CC1)CC2,< 600
19,CC(=O)Nc1nc2c(s1)-c1c(c(C3CC3)nn1-c1ccc(C(=O)N[C@H]3CCN(C4CCCC4)C3)c(Cl)c1)CC2,< 600
20,CC(=O)Nc1nc2c(s1)-c1c(c(C3CC3)nn1-c1ccc(C(=O)N(C)C3CCN(C4CCCC4)C3)c(Cl)c1)CC2 (stereo not drawn),< 600
21,CC(=O)Nc1nc2c(s1)-c1c(c(C3CC3)nn1-c1ccc(C(=O)N(C)C[C@@H]3CCN(C4CCCC4)C3)c(Cl)c1)CC2,< 600
22,CC(=O)Nc1nc2c(s1)-c1c(c(C3CC3)nn1-c1ccc(C(=O)N[C@@H]3CCN(C4CCCC4)C3)c(F)c1)CC2,< 600
23,CC(=O)Nc1nc2c(s1)-c1c(c(C3CC3)nn1[C@H]1CC[C@H](C(=O)NC3CCN(C4CCCC4)CC3)CC1)CC2,< 600
24,CC(=O)Nc1nc2c(s1)-c1c(c(C3CC3)nn1-c1ccc(C(=O)N(C)C3CCN(CC4CCCC4)CC3)c(Cl)c1)CC2,< 600
25,CC(=O)Nc1nc2c(s1)-c1c(c(C3CC3)nn1-c1ccc(C(=O)N(C)[C@H]3CCN(C4CCCCC4)C3)cc1F)CC2,< 600

row,SMILES,IC50 [nM]
1,CC(=O)Nc1nc2c(s1)-c1c(c(C3CC3)nn1-c1ccc(C(=O)NC3CCN(C4CCCCC4)CC3)cc1Cl)CC2,< 600
2,CC(=O)Nc1nc2c(s1)-c1c(c(C3CC3)nn1-c1ccc(C(=O)NC3CCN(CC4CCCCC4)CC3)cc1C)CC2,< 600
3,CC(=O)Nc1nc2c(s1)-c1c(c(C3CC3)nn1-c1ccc(C(=O)N3CCC(N4CCCC4)CC3)cc1Cl)CC2,< 600
4,CC(=O)Nc1nc2c(s1)-c1c(c(C3(C)CC3)nn1-c1ccc(C(=O)N[C@H]3CC[C@@H](N4CCCCC4)CC3)cc1Cl)CC2,< 600
5,CC(=O)Nc1nc2c(s1)-c1c(c(C3CC3)nn1-c1ccc(C(=O)N[C@@H]3CCN(C4CCCCC4)C3)c(F)c1)CC2,< 600
6,CC(=O)Nc1nc2c(s1)-c1c(c(C3CC3)nn1-c1ccc(C(=O)N(C)[C@H]3CC[C@@H](N(C)CC4CCCC4)CC3)c(Cl)c1)CC2,< 600
7,CC(=O)Nc1nc2c(s1)-c1c(c(C3CC3)nn1-c1ccc(C(=O)N(C)[C@H]3CC[C@@H](N4CCCCC4)CC3)cc1C)CC2,< 600
8,CC(=O)Nc1nc2c(s1)-c1c(c(C3CC3)nn1-c1ccc(C(=O)N(C)[C@@H]3CCN(C4CCCC4)C3)cc1C)CC2,< 600
9,CC(=O)Nc1nc2c(s1)-c1c(c(C3CC3)nn1-c1ccc(C(=O)N[C@H]3CC[C@@H](N(C)CC4CCCC4)CC3)cc1F)CC2,< 600
10,CCN(C(=O)c1ccc(-n2nc(C3CC3)c3c2-c2sc(NC(C)=O)nc2CC3)c(C)c1)[C@H]1CC[C@@H](N2CCCC2)CC1,< 600
11,CC(=O)Nc1nc2c(s1)-c1c(c(C3CC3)nn1-c1ccc(C(=O)N[C@@H]3CN4CCC3CC4)c(Cl)c1)CC2,< 600
12,CC(=O)Nc1nc2c(s1)-c1c(c(C3CC3)nn1-c1ccc(C(=O)N[C@H]3CC[C@@H](N4CCOCC4)CC3)c(C)c1)CC2,< 600
13,CCCN1CCC(NC(=O)c2ccc(-n3nc(C4CC4)c4c3-c3sc(NC(C)=O)nc3CC4)c(C)c2)CC1,< 600
14,CC(=O)Nc1nc2c(s1)-c1c(c(C3CC3)nn1-c1ccc(C(=O)N3CC[C@H](CN4CCCC4)C3)cc1Cl)CC2,< 600
15,CC(=O)Nc1nc2c(s1)-c1c(c(C3CC3)nn1-c1ccc(C(=O)N(C)[C@H]3CC[C@@H](N(C)CC4CCCC4)CC3)cc1Cl)CC2,< 600
16,CC(=O)Nc1nc2c(s1)-c1c(c(C3CC3)nn1-c1ccc(C(=O)NC3CCN(C4CCCC4)CC3)cc1C)CC2,< 600
17,CC(=O)Nc1nc2c(s1)-c1c(c(C3CC3)nn1C1CCC(C(=O)N[C@H]3CC[C@H](N4CCCC4)CC3)CC1)CC2 (stereo partly drawn),< 600
18,CC(=O)Nc1nc2c(s1)-c1c(c(C3CC3)nn1-c1ccc(C(=O)NC3CCN(C4CCCC4)CC3)c(Cl)c1)CC2,< 600
19,CC(=O)Nc1nc2c(s1)-c1c(c(C3CC3)nn1-c1ccc(C(=O)N(C)[C@H]3CC[C@@H](N(C)CC4CC4)CC3)c(C)c1)CC2,< 600
20,CC(=O)Nc1nc2c(s1)-c1c(c(C3CC3)nn1-c1ccc(C(=O)N[C@H]3CC[C@@H](N4CCCCC4)CC3)c(C)c1)CC2,< 600
21,CC(=O)Nc1nc2c(s1)-c1c(c(C3CC3)nn1-c1ccc(C(=O)N(C)C3CCN(C4CCCC4)CC3)cc1Cl)CC2,< 600
22,CC(=O)Nc1nc2c(s1)-c1c(c(C3CC3)nn1-c1ccc(C(=O)N[C@H]3CC[C@@H](N4CCCC4)CC3)c(C)c1)CC2,< 600
23,CC(=O)Nc1nc2c(s1)-c1c(c(C3CC3)nn1-c1ccc(C(=O)N(C)[C@@H]3CCN(CC4CCCC4)C3)c(C)c1)CC2,< 600
